Experimental data taken from patent publication US20100105694A1, “SUBSTITUTED PYRAZINONE DERIVATIVES FOR USE AS A MEDICINE” (priority 2006, published 2010).
Read-outs that look alike come from different tables or passages of the source.

Key:
[1] = target: T1, human adrenergic-α2C receptor (Homo sapiens, UniProt P18825); assay: Radioligand binding experiment for α2C-adrenoceptor ([3H]raulwolscine, CHO cell membranes); conditions: [3H]raulwolscine 1 nM, membranes of CHO cells transfected with human α2C receptor; read-out: h-α2C pIC50 (converted)
T1 construct: expressed in transfected cells; host or cells: CHO cells, stably transfected; membranes
T1 sequence (P18825 1-462): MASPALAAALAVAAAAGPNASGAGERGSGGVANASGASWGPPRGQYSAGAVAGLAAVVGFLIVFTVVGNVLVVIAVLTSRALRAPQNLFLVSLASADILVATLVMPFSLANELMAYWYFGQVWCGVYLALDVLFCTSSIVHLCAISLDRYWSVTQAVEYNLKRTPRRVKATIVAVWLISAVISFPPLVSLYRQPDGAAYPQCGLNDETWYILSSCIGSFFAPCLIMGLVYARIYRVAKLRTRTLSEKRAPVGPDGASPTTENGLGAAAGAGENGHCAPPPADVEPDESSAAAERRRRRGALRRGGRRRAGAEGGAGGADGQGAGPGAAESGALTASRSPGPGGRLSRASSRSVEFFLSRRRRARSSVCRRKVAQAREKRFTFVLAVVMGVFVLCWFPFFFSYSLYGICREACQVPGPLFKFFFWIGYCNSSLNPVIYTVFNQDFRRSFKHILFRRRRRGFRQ
Description: (§1) The interaction of a compound of Formula (I) with α2C-adrenoceptor receptors was assessed in in vitro radioligand binding experiments. In general, a low concentration of a radioligand with a high binding affinity for a particular receptor or transporter is incubated with a sample of a tissue preparation enriched in a particular receptor or transporter or with a preparation of cells expressing cloned human receptors in a buffered medium. During the incubation, the radioligand binds to the receptor or transporter. When equilibrium of binding is reached, the receptor bound radioactivity is separated from the non-bound radioactivity, and the receptor- or transporter-bound activity is counted. The interaction of the test compounds with the receptor is assessed in competition binding experiments. Various concentrations of the test compound are added to the incubation mixture containing the receptor- or transporter preparation and the radioligand. The test compound in proportion to its binding affinity and its concentration inhibits binding of the radioligand. The radioligand used for hα2A and hα2C receptor binding was [^3H]-raulwolscine.
(§2) CHO cells, stabile transfected with human adrenergic-α2A and α2C receptor cDNA, were cultured in Dulbecco's Modified Eagle's Medium (DMEM)/Nutrient mixture Ham's F12 (ratio 1:1) (Gibco, Gent-Belgium) supplemented with 10% heat inactivated fetal calf serum (Life Technologies, Merelbeke-Belgium) and antibiotics (100 IU/ml penicillin G, 100 μg/ml streptomycin sulphate, 110 μg/ml pyruvic acid and 100 μg/ml L-glutamine). One day before collection, cells were induced with 5 mM sodiumbutyrate. Upon 80-90% of confluence, cells were scraped in phosphate buffered saline without Ca^2+ and Mg^2+ and collected by centrifugation at 1500×g for 10 minutes. The cells were homogenised in Tris-HCl 50 mM using an Ultraturrax homogenizer and centrifuged for 10 minutes at 23,500×g. The pellet was washed once by resuspension and rehomogenization and the final pellet was resuspended in Tris-HCl, divided in 1 ml aliquots and stored at −70° C.
(§3) Membranes were thawed and re-homogenized in incubation buffer (glycylglycine 25 mM, pH 8.0). […] Filters were rinsed extensively with ice-cold rinsing buffer (Tris-HCl 50 mM pH 7.4). Filter-bound radioactivity was determined by scintillation counting in a Topcount (Packard, Meriden, Conn.) and results were expressed as counts per minute (cpm). Non-specific binding was determined in the presence of 1 μM oxymetazoline for the hα2A receptor and 1 μM spiroxatrine for hα2C receptors.
(§4) Data from assays in the presence of compound were calculated as a percentage of total binding measured in the absence of test compound. Inhibition curves, plotting percent of total binding versus the log value of the concentration of the test compound, were automatically generated, and sigmoidal inhibition curves were fitted using non-linear regression. The pIC50 values of test compounds were derived from individual curves.

5HT-Transporter = target: T2, 5HT-Transporter (Homo sapiens, UniProt P31645); assay: Binding experiment for the 5HT-transporter ([3H]paroxetine, human platelet membranes)
T2 construct: Human platelet membranes (Oceanix Biosciences Corporation, Hanover, Md., USA) were thawed; tissue Oceanix Biosciences Corporation; host or cells: human platelet membranes
T2 sequence (P31645 whole entry): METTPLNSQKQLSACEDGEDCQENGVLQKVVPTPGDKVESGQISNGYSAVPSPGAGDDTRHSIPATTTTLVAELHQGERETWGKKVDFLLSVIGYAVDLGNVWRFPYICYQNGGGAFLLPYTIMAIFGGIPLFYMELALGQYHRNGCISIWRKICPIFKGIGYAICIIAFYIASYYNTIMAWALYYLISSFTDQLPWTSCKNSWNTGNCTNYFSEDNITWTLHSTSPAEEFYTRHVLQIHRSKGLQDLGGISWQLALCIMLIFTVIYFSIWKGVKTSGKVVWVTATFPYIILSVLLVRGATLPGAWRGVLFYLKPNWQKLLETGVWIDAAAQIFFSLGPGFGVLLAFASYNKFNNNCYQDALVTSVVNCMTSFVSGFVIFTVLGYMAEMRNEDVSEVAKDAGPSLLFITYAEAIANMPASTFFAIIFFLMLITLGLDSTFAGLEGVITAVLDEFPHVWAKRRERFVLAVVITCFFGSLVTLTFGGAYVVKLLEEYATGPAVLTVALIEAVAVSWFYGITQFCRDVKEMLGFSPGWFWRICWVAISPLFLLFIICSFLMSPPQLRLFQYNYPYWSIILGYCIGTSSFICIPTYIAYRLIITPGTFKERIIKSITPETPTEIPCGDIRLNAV
Description: as §1
Human platelet membranes (Oceanix Biosciences Corporation, Hanover, Md., USA) were thawed, diluted in buffer (Tris-HCl 50 mM, 120 mM NaCl and 5 mM KCl) and quickly (max 3 s) homogenised with an Ultraturrax homogenizer. […] Incubation was stopped by rapid filtration of the incubation mixture over GF/B filters, pre-wetted with 0.1% polyethyleneamine, using a Filtermate196 harvester (Packard, Meriden, Conn.). Filters were rinsed extensively with ice-cold buffer and radioactivity on the filters was counted in a Topcount liquid scintillation counter (Packard, Meriden, Conn.). Data were expressed as cpm. Imipramine (at 1 μM final concentration) was used to determine the non-specific binding.
as §4

[2] = target: T3, human adrenergic-α2A receptor (Homo sapiens, UniProt P08913); assay: Radioligand binding experiment for hα2A receptor ([3H]raulwolscine, CHO cell membranes)
T3 construct: expressed in transfected cells; host or cells: CHO cells, stably transfected; membranes
T3 sequence (P08913 1-465): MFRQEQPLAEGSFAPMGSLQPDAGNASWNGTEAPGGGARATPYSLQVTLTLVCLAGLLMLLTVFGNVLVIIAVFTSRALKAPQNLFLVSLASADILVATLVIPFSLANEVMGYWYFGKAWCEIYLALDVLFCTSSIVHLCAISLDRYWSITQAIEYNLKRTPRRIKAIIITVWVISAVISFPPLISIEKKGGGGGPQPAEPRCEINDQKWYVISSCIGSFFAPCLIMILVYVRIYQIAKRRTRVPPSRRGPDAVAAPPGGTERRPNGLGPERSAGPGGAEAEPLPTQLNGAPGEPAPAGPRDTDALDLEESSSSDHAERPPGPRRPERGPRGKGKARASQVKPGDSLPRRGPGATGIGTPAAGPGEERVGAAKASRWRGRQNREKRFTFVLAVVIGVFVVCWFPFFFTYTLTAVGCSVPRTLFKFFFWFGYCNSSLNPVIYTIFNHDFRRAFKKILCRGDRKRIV
Description: as §1, §2, §3, §4

[3] = [3H]paroxetine 0.5 nM, read-out: h-5HTT pIC50 (converted)
[4] = [3H]raulwolscine 1 nM, membranes of CHO cells transfected with human α2A receptor, read-out: h-α2A pIC50 (converted)

SMILES	IC50 [1] [nM]	IC50 (5HT-Transporter; [3]) [nM]	IC50 [2, 4] [nM]	IC50 (5HT-Transporter; h-5HTT pIC50, [3H]paroxetine 0.5 nM) [nM]	IC50 [2] [nM]
NCc1ccc(Cn2ccnc(NC3CCN(Cc4ccc(-c5ccccc5)cc4)CC3)c2=O)cc1 [Compound 1-1]	251	501	251	–	–
O=c1c(NC2CCN(Cc3ccc(-c4ccccc4)cc3)CC2)nccn1CCN1CCCCC1 [Compound 1-3]	100	2510	501	–	–
O=C1c2ccccc2C(=O)N1CCCn1ccnc(NC2CCN(Cc3ccc(-c4ccccc4)cc3)CC2)c1=O [Compound 1-4]	126	158	631	–	–
COC(=O)Cn1ccnc(NC2CCN(Cc3ccc(-c4ccccc4)cc3)CC2)c1=O [Compound 1-5]	316	5010	1260	–	–
O=c1c(NC2CCN(Cc3ccc(-c4ccccc4)cc3)CC2)nccn1Cc1ccccc1Br [Compound 1-6]	501	398	794	–	–
O=c1c(NC2CCN(Cc3ccc(-c4ccccc4)cc3)CC2)nccn1Cc1cccc(Br)c1 [Compound 1-7]	398	1000	1000	–	–
O=c1c(NC2CCN(Cc3ccc(-c4ccccc4)cc3)CC2)nccn1Cc1ccc(Br)cc1 [Compound 1-8]	794	631	1000	–	–
O=c1c(NC2CCN(Cc3ccc(-c4ccccc4)cc3)CC2)nccn1CC1CCCCO1 (stereo not drawn) [Compound 1-9]	631	316	2000	–	–
O=c1c(NC2CCN(Cc3ccc(-c4ccccc4)cc3)CC2)nccn1Cc1ccncc1 [Compound 1-10]	794	> 10000	3160	–	–
O=c1c(NC2CCN(Cc3ccc(-c4ccccc4)cc3)CC2)nccn1Cc1ccc2ccccc2n1 [Compound 1-11]	794	501	631	–	–
CC(C)(C)OC(=O)NCCCn1ccnc(N2CCN(Cc3ccc(-c4ccccc4)cc3)CC2)c1=O [Compound 2-1]	631	1580	1260	–	–
O=C1c2ccccc2C(=O)N1CCCn1ccnc(N2CCN(Cc3ccc(-c4ccccc4)cc3)CC2)c1=O [Compound 2-2]	316	200	1000	–	–
NCc1ccc(Cn2ccnc(N3CCN(Cc4cccc(-c5ccccc5)c4)CC3)c2=O)cc1 [Compound 3-1]	631	5010	79.4	–	–
CC(C)(C)OC(=O)NCc1ccc(Cn2ccnc(N3CCN(Cc4cccc(-c5ccccc5)c4)CC3)c2=O)cc1 [Compound 3-2]	251	6310	200	–	–
O=c1[nH]ccnc1N1CCN(Cc2cccc(-c3ccccc3)c2)CC1 [Compound 3-3]	316	> 10000	316	–	–
C=CCn1ccnc(N2CCN(Cc3cccc(-c4ccccc4)c3)CC2)c1=O [Compound 3-4]	794	–	200	–	–
O=c1c(N2CCN(Cc3cccc(-c4ccccc4)c3)CC2)nccn1CC=Cc1ccccc1 [Compound 3-6]	794	5010	794	–	–
O=c1c(N2CCN(Cc3cccc(-c4ccccc4)c3)CC2)nccn1Cc1ccc2ccccc2c1 [Compound 3-7]	–	5010	200	–	–

SMILES	IC50 [1] [nM]	IC50 (5HT-Transporter; [3]) [nM]	IC50 [2, 4] [nM]	IC50 (5HT-Transporter; h-5HTT pIC50, [3H]paroxetine 0.5 nM) [nM]	IC50 [2] [nM]
O=c1c(N2CCN(Cc3cccc(-c4ccccc4)c3)CC2)nccn1Cc1ccco1 [Compound 3-8]	316	–	79.4	–	–
O=C1c2ccccc2C(=O)N1CCCn1ccnc(N2CCN(Cc3cccc(-c4ccccc4)c3)CC2)c1=O [Compound 3-9]	794	794	1580	–	–
COc1ccc(-c2nnc(Cn3ccnc(N4CCN(Cc5cccc(-c6ccccc6)c5)CC4)c3=O)o2)cc1 [Compound 3-10]	–	6310	501	–	–
O=c1c(N2CCC(c3ccccc3)CC2)nccn1Cc1ccc2ccccc2c1 [Compound 4-1]	501	3980	501	–	–
NCc1ccc(Cn2ccnc(N3CCC(c4ccccc4)CC3)c2=O)cc1 [Compound 4-2]	794	> 10000	501	–	–
CC(C)(C)OC(=O)NCc1ccc(Cn2ccnc(N3CCC(c4ccccc4)CC3)c2=O)cc1 [Compound 4-3]	631	> 10000	200	–	–
NCc1ccc(Cn2ccnc(NC3CCN(Cc4ccccc4)CC3)c2=O)cc1 [Compound 5-1]	–	7940	–	–	–
NCc1ccc(Cn2ccnc(NC3CCN(Cc4ccccc4)CC3)c2=O)cc1 [Compound 5-2]	631	> 10000	1000	–	–
NCc1ccc(CN(c2nccn(Cc3ccc(CN)cc3)c2=O)C2CCN(Cc3ccccc3)CC2)cc1 [Compound 5-3]	–	> 10000	1000	–	–
O=c1c(NC2CCN(Cc3ccccc3)CC2)nccn1CCN1CCCCC1 [Compound 5-4]	–	> 10000	3160	–	–
O=C1c2ccccc2C(=O)N1CCCn1ccnc(NC2CCN(Cc3ccccc3)CC2)c1=O [Compound 5-5]	398	3980	5010	–	–
NCCCn1ccnc(NC2CCN(CCc3ccccc3)CC2)c1=O [Compound 6-1]	–	–	–	> 10000	3980
NCc1ccc(Cn2ccnc(NC3CCN(CCc4ccccc4)CC3)c2=O)cc1 [Compound 6-2]	–	3980	–	–	–
NCc1ccc(Cn2ccnc(NC3CCN(CCc4ccccc4)CC3)c2=O)cc1 [Compound 6-3]	398	> 10000	1260	–	–
NCCCn1ccnc(NC2CCN(CC(c3ccccc3)c3ccccc3)CC2)c1=O [Compound 9-1]	501	–	1000	–	–
CC(C)(C)OC(=O)NCc1ccc(Cn2ccnc(N3CCN(CCc4ccccc4)CC3)c2=O)cc1 [Compound 10-3]	316	–	794	–	–
O=C(Cn1ccnc(N2CCN(CCc3ccccc3)CC2)c1=O)c1ccccc1 [Compound 10-7]	–	> 10000	2000	–	–
O=c1c(N2CCN(Cc3ccccc3)CC2)nccn1Cc1ccc2ccccc2c1 [Compound 10-9]	794	–	126	–	–
